Measurements taken from US11938143B2, “Compositions comprising 2′-deoxycytidine analogs and use thereof for the treatment of sickle cell disease, thalassemia, and cancers” (AkiraBio, Inc., priority 2021, dated 2024).

What was measured:
[1] = system: sickle erythroid progenitors; assay: Erythroid differentiation markers CD71 and CD235a by flow cytometry in sickle erythroid progenitors; format: cell-based, human; conditions: 48 hours
Procedure: (§1) FIGS. 6A-6B show representative data pertaining to primary sickle erythroid progenitors generated from peripheral blood mononuclear cells isolated from sickle cell patients using a two-phase liquid culture system. Cells treated for 48 hours were analyzed. […] Shown in the graph is the mean±SEM for n=6.
Additional studies were carried out in primary sickle erythroid progenitors were next conducted. Using a previously established two-phase culture system, (See NRF2 mediates γ-globin gene regulation and fetal hemoglobin induction in human erythroid progenitors Xingguo Zhu et al., Experimental Hematology 2019; 70:85-96, incorporated by reference herein) AB1 was evaluated in progenitors cultured from peripheral blood mononuclear cells (PBMC) isolated from sickle cell subjects, at concentrations of 3, 6, and 10 nM. PBMCs were isolated by Ficoll® Paque separation and cultured in IMDM supplemented with erythropoietin (2 IU), stem cell factor (10 ng/mL) and Interleukin 3 (10 ng/mL). On day seven, drug controls HU 75 μM, Dec 200 nM and AB1 (3, 6, and 10 nM) were added for 48 hours. Cell viability was assessed with Trypan blue, and markers of erythroid differentiation were assessed by flow cytometry using antibodies for CD71 and CD235a, to evaluate changes in differentiation. Proportions of F-cells and MFI were assayed by FACScan using staining with fluorescein isothiocyanate (FITC) anti-human HbF antibody (Bethyl). In our experience, primary erythroid progenitors are more sensitive to drug toxicity, so a lower dose range of AB1 was used. […] As a marker of early erythroid differentiation, CD71^+ progenitors were not affected by Dec or AB1 at any dose tested. In notable contrast, there was a 7-fold increase in CD71^+ cells mediated by HU (FIG. 6B).

HbF = assay: F-cells and MFI by flow cytometry in sickle erythroid progenitors; format: cell-based, human; conditions: 48 hours
Procedure: FIGS. 8A-8D show representative data pertaining to the induction of AB1 HbF and inhibition of DNMT1 levels. Sickle erythroid progenitors were treated with the various agents shown for 48 hours. […] Shown in the graph is the mean±SEM for n=6 replicates. […] In FIGS. 8C-8D, “UT” indicates untreated cells; “HU” indicates hydroxyurea; “DEC” indicates decitabine; and “AB1” indicates disclosed compound AB1; the concentrations are indicated above the graph below the text indicating treatment compound.
Additional studies were carried out in primary sickle erythroid progenitors were next conducted. Using a previously established two-phase culture system, (See NRF2 mediates γ-globin gene regulation and fetal hemoglobin induction in human erythroid progenitors Xingguo Zhu et al., Experimental Hematology 2019; 70:85-96, incorporated by reference herein) AB1 was evaluated in progenitors cultured from peripheral blood mononuclear cells (PBMC) isolated from sickle cell subjects, at concentrations of 3, 6, and 10 nM. […] Cell viability was assessed with Trypan blue, and markers of erythroid differentiation were assessed by flow cytometry using antibodies for CD71 and CD235a, to evaluate changes in differentiation. […]
We assessed effects of AB1 at the transcription levels by RT-qPCR analysis. […]

[2] = system: sickle erythroid progenitors; assay: In vitro sickling of erythroid progenitors under overnight hypoxia (2% oxygen); format: cell-based, human; conditions: 48 hours treatment then overnight at 2% oxygen; AB1 3, 6, 10 nM; decitabine 200 nM; HU 75 μM
Procedure: FIGS. 9A-9B show representative data pertaining to various treatments and reduction of the level of sickle erythroid progenitors. After sickle progenitors were treated with the various drugs for 48 hours as indicated, and then incubated overnight in hypoxia conditions. […] In FIGS. 9A-9B, “UT” indicates untreated cells; “HU” indicates hydroxyurea; “DEC” indicates decitabine; and “AB1” indicates disclosed compound AB1; the concentrations are indicated, and concentration used is adjacent to the text indicating treatment compound.
We assessed effects of AB1 at the transcription levels by RT-qPCR analysis. […] Complementary studies at the protein levels were completed by flow cytometry and Western blot. […] To further support the notion that AB1 induces HbF expression, Western blot analysis was performed. […] It was observed that there was a dose-dependent 80% decrease in DNMT1 in sickle erythroid progenitors at the highest AB1 10 nM concentration (FIG. 8 D). […] After treatment for 48 hours, with the various drugs, the cells were incubated overnight at 2% oxygen, then fixed with formalin and the number of sickle versus non-sickle cells counted by phase contrast microscopy, a method previously published by the Pace (PI/PD) group (see Zhu, X., Li, B. & Pace, B. S. Haematologica 102, e285-e288, doi:10.3324/haematol.2016.160788 (2017)). […]

[3] = Cell viability of primary sickle erythroid progenitors by Trypan blue; format: cell-based; conditions: human, HU 75 μM, read-out: drop in cell viability
Procedure: as §1
Additional studies were carried out in primary sickle erythroid progenitors were next conducted. Using a previously established two-phase culture system, (See NRF2 mediates γ-globin gene regulation and fetal hemoglobin induction in human erythroid progenitors Xingguo Zhu et al., Experimental Hematology 2019; 70:85-96, incorporated by reference herein) AB1 was evaluated in progenitors cultured from peripheral blood mononuclear cells (PBMC) isolated from sickle cell subjects, at concentrations of 3, 6, and 10 nM. PBMCs were isolated by Ficoll® Paque separation and cultured in IMDM supplemented with erythropoietin (2 IU), stem cell factor (10 ng/mL) and Interleukin 3 (10 ng/mL). On day seven, drug controls HU 75 μM, Dec 200 nM and AB1 (3, 6, and 10 nM) were added for 48 hours. Cell viability was assessed with Trypan blue, and markers of erythroid differentiation were assessed by flow cytometry using antibodies for CD71 and CD235a, to evaluate changes in differentiation. […]

Compound | CD71+ progenitors (marker of early erythroid differentiation) ([1]; Dec 200 nM, AB1 at any dose tested (3, 6, 10 nM)) | level of CD235a+ cells (marker of terminal differentiation) ([1]; HU 75 μM, Dec 200 nM, AB1 3, 6, 10 nM) | F-cell levels (HbF; average of SCD patients, increase from 16%, all AB1 concentrations tested, Dec 200 nM) | decrease in sickle cells [2] | increase in CD71+ cells ([1]; HU 75 μM) | F-cell induction (HbF; HU 75 μM, all patient data combined) | cytotoxicity at 48 h, 75 μM [3]
Nc1ncn([C@H]2C[C@H](O)[C@@H](CO)O2)c(=O)n1 [Dec, 4-amino-1-(2-deoxy-b-D-erythro-pentofuranosyl)-1,3,5-triazin-2(1H)-one] | not affected | increased by all drugs except Dec | 22% | 80% |  |  | 
NC(=O)NO [HU, hydroxyurea] |  |  |  | 50% | 7 fold | not observed | 40%
